Active and inactive are the calls of the source. Cut-off read from the data, not from the text of the source, for most assays here: actives have a measured Kd and inactives only a lower limit.
Legend:
[1] = biological target: T1, Tyrosine-protein kinase Tec (Homo sapiens, UniProt P42680)
T1 sequence (P42680 whole entry): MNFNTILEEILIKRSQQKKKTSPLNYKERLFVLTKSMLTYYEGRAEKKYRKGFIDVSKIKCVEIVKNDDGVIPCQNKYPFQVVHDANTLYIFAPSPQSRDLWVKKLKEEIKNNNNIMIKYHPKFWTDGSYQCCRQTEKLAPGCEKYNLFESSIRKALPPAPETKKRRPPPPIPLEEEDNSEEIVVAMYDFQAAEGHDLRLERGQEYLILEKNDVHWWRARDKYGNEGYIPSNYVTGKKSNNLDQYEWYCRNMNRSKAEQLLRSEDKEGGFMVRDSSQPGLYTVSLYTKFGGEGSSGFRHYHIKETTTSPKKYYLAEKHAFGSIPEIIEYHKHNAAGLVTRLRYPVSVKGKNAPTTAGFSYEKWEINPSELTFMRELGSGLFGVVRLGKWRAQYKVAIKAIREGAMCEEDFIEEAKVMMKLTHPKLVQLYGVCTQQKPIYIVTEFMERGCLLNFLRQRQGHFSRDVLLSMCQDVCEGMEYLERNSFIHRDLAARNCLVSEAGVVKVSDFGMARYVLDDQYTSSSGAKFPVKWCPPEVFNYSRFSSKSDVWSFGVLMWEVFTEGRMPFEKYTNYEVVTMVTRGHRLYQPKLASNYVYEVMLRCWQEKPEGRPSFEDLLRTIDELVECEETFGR

[2] = biological target: cAMP-dependent protein kinase catalytic subunit alpha (Homo sapiens, UniProt P17612)
[3] = biological target: Serine/threonine-protein kinase N1 (Homo sapiens, UniProt Q16512)
[4] = biological target: T2, Septin-9 (Homo sapiens, UniProt Q9UHD8)
T2 sequence (Q9UHD8 whole entry): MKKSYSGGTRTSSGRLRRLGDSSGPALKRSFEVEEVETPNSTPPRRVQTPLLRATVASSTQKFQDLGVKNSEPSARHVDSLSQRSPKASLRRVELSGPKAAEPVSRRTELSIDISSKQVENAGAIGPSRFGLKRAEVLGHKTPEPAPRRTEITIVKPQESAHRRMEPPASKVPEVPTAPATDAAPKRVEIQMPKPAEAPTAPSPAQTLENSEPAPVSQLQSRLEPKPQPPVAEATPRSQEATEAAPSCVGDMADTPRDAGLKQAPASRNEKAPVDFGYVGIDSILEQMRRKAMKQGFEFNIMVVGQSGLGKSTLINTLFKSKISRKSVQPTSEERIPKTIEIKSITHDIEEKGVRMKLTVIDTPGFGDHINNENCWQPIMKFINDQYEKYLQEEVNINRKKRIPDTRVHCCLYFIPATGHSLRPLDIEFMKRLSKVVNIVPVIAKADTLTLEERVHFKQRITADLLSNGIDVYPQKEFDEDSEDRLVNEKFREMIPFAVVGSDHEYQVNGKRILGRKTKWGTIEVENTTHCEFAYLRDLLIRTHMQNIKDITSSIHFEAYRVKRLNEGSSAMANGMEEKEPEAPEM

[5] = biological target: T3, Activin receptor type-1B (Homo sapiens, UniProt P36896)
T3 sequence (P36896 whole entry): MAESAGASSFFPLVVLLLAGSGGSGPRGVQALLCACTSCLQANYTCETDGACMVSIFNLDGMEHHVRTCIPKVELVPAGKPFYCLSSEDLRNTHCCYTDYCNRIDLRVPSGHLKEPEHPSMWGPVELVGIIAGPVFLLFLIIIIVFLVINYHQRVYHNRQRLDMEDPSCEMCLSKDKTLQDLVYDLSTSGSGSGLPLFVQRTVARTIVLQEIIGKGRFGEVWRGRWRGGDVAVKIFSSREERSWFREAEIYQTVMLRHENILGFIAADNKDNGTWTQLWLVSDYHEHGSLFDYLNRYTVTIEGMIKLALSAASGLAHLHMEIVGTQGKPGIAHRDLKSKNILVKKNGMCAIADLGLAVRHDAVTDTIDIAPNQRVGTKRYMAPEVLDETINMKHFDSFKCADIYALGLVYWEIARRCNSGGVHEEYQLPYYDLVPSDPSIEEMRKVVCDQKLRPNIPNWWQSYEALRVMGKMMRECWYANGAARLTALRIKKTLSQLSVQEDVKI

[6] = biological target: Ephrin type-A receptor 4 (Homo sapiens, UniProt P54764)
[7] = biological target: Serine/threonine-protein kinase 26 (Homo sapiens, UniProt Q9P289)
[8] = biological target: Mitogen-activated protein kinase 1 (Homo sapiens, UniProt P28482)
[9] = biological target: T4, ATP-dependent 6-phosphofructokinase, platelet type (Homo sapiens, UniProt Q01813)
T4 sequence (Q01813 whole entry): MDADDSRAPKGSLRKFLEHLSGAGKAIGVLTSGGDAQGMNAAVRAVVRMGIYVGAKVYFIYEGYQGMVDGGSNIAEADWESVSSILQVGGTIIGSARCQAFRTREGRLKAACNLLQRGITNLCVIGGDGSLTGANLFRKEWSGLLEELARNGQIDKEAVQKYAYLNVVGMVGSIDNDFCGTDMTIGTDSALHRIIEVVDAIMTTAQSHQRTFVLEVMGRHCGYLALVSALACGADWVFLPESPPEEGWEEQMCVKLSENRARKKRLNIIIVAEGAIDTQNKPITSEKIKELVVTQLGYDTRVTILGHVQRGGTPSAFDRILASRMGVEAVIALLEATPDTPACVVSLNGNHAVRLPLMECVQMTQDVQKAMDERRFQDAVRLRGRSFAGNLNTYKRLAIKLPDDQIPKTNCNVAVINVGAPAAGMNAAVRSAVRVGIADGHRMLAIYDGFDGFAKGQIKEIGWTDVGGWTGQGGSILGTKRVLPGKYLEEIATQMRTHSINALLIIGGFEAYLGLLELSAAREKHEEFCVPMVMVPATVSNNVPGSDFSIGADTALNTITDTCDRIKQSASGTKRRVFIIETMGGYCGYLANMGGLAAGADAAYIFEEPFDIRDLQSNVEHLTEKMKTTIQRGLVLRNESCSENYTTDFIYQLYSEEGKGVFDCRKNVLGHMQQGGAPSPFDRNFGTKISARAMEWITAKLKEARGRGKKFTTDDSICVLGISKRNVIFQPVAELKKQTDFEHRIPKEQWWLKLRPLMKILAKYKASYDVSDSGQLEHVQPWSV

[10] = biological target: Serine/threonine-protein kinase PAK 2 (Homo sapiens, UniProt Q13177)
Note: in the data inactive means no Kd found up to 30 µM.

Chain of Mitogen-activated protein kinase 1 (P28482 whole entry): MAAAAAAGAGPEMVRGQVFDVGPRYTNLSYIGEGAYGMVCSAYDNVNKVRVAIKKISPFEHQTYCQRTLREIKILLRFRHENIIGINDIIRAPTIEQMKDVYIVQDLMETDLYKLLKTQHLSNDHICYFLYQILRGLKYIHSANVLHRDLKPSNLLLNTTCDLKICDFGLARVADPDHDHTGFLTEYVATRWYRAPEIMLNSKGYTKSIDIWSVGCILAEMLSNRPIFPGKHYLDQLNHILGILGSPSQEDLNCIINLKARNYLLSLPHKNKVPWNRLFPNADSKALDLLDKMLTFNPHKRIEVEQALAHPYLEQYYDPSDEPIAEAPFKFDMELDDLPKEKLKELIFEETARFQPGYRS
Chain of Serine/threonine-protein kinase 26 (Q9P289 whole entry): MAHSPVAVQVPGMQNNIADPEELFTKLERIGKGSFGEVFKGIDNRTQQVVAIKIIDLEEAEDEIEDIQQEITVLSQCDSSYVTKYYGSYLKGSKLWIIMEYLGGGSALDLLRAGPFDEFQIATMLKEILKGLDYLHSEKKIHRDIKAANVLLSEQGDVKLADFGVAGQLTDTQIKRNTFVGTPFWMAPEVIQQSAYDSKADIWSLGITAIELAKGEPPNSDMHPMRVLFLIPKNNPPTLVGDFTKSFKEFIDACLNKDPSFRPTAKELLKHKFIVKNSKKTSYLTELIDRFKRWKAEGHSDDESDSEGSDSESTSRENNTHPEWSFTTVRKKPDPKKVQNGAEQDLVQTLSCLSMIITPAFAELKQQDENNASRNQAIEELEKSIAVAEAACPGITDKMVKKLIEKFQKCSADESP
Chain of Serine/threonine-protein kinase PAK 2 (Q13177 whole entry): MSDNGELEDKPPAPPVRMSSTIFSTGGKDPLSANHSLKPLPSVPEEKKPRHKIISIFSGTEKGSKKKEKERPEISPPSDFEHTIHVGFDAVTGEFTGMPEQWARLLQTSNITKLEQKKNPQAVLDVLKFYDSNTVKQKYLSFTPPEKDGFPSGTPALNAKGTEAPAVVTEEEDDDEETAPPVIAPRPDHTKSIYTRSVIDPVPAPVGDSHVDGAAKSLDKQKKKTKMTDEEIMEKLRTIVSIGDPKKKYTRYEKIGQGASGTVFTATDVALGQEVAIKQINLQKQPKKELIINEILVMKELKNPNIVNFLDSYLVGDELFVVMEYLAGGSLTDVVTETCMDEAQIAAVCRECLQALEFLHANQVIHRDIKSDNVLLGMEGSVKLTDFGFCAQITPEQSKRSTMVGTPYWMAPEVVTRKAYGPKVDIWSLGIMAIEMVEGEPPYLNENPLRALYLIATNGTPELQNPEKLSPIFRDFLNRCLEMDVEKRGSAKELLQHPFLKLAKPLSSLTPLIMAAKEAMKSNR
Chain of Serine/threonine-protein kinase N1 (Q16512 whole entry): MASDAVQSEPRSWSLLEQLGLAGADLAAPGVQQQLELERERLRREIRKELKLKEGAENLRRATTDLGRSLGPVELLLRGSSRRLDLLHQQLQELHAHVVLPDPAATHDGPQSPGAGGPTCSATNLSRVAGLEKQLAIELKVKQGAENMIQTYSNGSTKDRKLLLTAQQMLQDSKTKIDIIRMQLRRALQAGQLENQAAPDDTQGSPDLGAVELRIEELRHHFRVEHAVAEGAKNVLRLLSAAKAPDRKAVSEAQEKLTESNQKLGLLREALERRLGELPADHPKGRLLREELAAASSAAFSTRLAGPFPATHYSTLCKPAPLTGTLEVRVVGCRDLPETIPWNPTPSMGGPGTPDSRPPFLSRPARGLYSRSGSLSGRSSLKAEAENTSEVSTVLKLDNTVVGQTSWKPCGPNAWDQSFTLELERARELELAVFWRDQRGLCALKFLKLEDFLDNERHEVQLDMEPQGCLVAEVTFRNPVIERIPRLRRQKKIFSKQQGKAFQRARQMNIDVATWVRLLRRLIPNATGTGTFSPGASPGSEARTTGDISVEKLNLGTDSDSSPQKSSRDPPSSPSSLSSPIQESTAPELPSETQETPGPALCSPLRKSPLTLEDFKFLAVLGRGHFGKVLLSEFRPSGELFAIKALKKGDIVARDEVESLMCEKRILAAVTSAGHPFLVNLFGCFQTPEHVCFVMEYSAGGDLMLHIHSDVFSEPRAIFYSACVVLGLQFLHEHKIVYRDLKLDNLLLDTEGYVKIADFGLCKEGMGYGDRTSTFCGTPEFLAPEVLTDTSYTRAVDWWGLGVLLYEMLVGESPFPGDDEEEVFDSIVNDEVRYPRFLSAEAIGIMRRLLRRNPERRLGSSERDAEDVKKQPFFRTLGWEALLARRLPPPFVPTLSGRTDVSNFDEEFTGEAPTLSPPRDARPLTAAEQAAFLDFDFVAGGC
Chain of Ephrin type-A receptor 4 (P54764 whole entry): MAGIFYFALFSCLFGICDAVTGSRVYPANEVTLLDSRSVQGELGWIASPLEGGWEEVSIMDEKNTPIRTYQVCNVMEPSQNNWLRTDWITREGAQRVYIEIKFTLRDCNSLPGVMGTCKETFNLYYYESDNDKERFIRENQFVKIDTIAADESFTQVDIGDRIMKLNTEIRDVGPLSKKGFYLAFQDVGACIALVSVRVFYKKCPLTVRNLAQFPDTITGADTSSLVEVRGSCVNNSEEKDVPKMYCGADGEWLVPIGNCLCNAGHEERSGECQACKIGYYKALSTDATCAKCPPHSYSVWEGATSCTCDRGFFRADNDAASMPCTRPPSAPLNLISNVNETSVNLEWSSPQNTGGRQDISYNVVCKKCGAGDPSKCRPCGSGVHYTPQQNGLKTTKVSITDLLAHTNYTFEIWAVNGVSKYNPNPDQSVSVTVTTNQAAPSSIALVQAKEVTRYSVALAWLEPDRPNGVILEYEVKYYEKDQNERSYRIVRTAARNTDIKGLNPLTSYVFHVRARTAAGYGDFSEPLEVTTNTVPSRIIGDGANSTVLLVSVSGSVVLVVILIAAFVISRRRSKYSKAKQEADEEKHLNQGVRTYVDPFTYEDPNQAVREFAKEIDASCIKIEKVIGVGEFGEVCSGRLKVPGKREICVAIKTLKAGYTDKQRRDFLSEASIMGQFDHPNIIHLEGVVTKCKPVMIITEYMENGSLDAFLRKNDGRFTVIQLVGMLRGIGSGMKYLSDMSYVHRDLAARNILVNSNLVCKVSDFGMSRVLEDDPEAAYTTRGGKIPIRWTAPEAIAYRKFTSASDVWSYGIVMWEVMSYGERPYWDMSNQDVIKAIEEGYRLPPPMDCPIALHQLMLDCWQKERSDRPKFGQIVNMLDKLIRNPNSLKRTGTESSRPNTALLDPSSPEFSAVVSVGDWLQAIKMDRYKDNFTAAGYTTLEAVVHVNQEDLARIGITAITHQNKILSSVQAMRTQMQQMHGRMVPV

Kd [1] | Kd [2] | Kd [3] | Kd [4] | Kd [5] | Kd [6] | Kd [7] | Kd [8] | Kd [9] | Kd [10] | Compound
> 30 µM (inactive) | > 30 µM (inactive) | 0.416 µM (active) | > 30 µM (inactive) | > 30 µM (inactive) | > 30 µM (inactive) | > 30 µM (inactive) | > 30 µM (inactive) | > 30 µM (inactive) | – | C[C@H]1CNCCCN1S(=O)(=O)c1cccc2cncc(F)c12
0.006 µM | > 30 µM (inactive) | > 30 µM (inactive) | > 30 µM (inactive) | > 30 µM (inactive) | > 30 µM (inactive) | > 30 µM (inactive) | > 30 µM (inactive) | > 30 µM (inactive) | – | C=CC(=O)N1CCC[C@H](n2c(=O)n(-c3ccc(Oc4ccccc4)cc3)c3c(N)ncnc32)C1
> 30 µM (inactive) | > 30 µM (inactive) | > 30 µM (inactive) | > 30 µM (inactive) | > 30 µM (inactive) | – | > 30 µM (inactive) | – | > 30 µM (inactive) | > 30 µM (inactive) | COc1cc(Nc2ncc3c(n2)-c2ccc(Cl)cc2C(c2c(F)cccc2OC)=NC3)ccc1C(=O)O [ALISERTIB]
– | 3.19 µM (active) | – | > 30 µM (inactive) | 0.811 µM (active) | 43.9 µM (active) | > 30 µM (inactive) | > 30 µM (inactive) | > 30 µM (inactive) | > 30 µM (inactive) | O=C(Nc1c[nH]nc1-c1nc2cc(CN3CCOCC3)ccc2[nH]1)NC1CC1 [AT-9283]
– | – | – | > 30 µM (inactive) | – | – | – | – | > 30 µM (inactive) | – | CNC(=O)c1ccccc1Sc1ccc2c(/C=C/c3ccccn3)n[nH]c2c1 [AXITINIB]
– | – | – | > 30 µM (inactive) | – | – | – | – | > 30 µM (inactive) | – | C[C@@H](Oc1cc(-n2cnc3ccc(CN4CCN(C)CC4)cc32)sc1C(N)=O)c1ccccc1C(F)(F)F [GSK-461364]
> 30 µM (inactive) | – | > 30 µM (inactive) | > 30 µM (inactive) | > 30 µM (inactive) | > 30 µM (inactive) | > 30 µM (inactive) | – | > 30 µM (inactive) | > 30 µM (inactive) | Cc1[nH]c(/C=C2\C(=O)Nc3ccccc32)c(C)c1CCC(=O)O [ORANTINIB]
> 30 µM (inactive) | – | – | > 30 µM (inactive) | 0.004 µM (active) | > 30 µM (inactive) | > 30 µM (inactive) | – | > 30 µM (inactive) | – | NC(=O)c1c(OCc2c(F)cc(Br)cc2F)nsc1NC(=O)NCCCCN1CCCC1 [OSI-632]
1.23 µM (active) | 0.935 µM (active) | – | > 30 µM (inactive) | > 30 µM (inactive) | > 30 µM (inactive) | 0.017 µM | 1.96 µM (active) | > 30 µM (inactive) | > 30 µM (inactive) | Cc1nc(Nc2n[nH]c3c2CN(C(=O)N[C@H](CN(C)C)c2ccccc2)C3(C)C)c2sccc2n1 [PF-03758309]
2.32 µM (active) | – | 2.94 µM (active) | > 30 µM (inactive) | > 30 µM (inactive) | > 30 µM (inactive) | > 30 µM (inactive) | – | > 30 µM (inactive) | – | CC(=O)NCC(=O)N1[C@@H]2CC[C@H]1c1ccc(Nc3ncc(C(F)(F)F)c(NC4CCC4)n3)cc12 [PF-03814735]
– | – | – | > 30 µM (inactive) | – | – | – | – | > 30 µM (inactive) | – | O=C(NOCCO)c1cc(CN2OCCCC2=O)c(F)c(F)c1Nc1ccc(I)cc1F [RO-4987655]
– | – | – | > 30 µM (inactive) | – | – | – | – | > 30 µM (inactive) | – | N#CC[C@H](C1CCCC1)n1cc(-c2ncnc3[nH]ccc23)cn1 [RUXOLITINIB]
> 30 µM (inactive) | 0.01 µM (active) | 0.076 µM (active) | > 30 µM (inactive) | > 30 µM (inactive) | > 30 µM (inactive) | – | > 30 µM (inactive) | > 30 µM (inactive) | > 30 µM (inactive) | Cn1ncc(Cl)c1-c1cc(C(=O)N[C@H](CN)Cc2ccc(F)c(F)c2)oc1Cl [UPROSERTIB]

Compound | Kd [1] | Kd [2] | Kd [3] | Kd [4] | Kd [5] | Kd [6] | Kd [7] | Kd [8] | Kd [9] | Kd [10]
CC(=O)c1cnc2ccc(-c3cc(Cl)c(O)c(Cl)c3)nc2c1N[C@H]1CC[C@H](CN(C)C)CC1 | > 30 µM (inactive) | > 30 µM (inactive) | 0.244 µM (active) | > 30 µM (inactive) | – | – | > 30 µM (inactive) | > 30 µM (inactive) | > 30 µM (inactive) | > 30 µM (inactive)
NC(=O)Nc1cc(-c2cccc(F)c2)sc1C(=O)N[C@H]1CCCNC1 [AZD-7762] | 2.61 µM (active) | > 30 µM (inactive) | 2.16 µM (active) | > 30 µM (inactive) | > 30 µM (inactive) | > 30 µM (inactive) | > 30 µM (inactive) | > 30 µM (inactive) | > 30 µM (inactive) | –
CC(C)(C)c1nc(-c2cccc(NS(=O)(=O)c3c(F)cccc3F)c2F)c(-c2ccnc(N)n2)s1 [DABRAFENIB] | > 30 µM (inactive) | – | > 30 µM (inactive) | > 30 µM (inactive) | 0.601 µM (active) | > 30 µM (inactive) | > 30 µM (inactive) | > 30 µM (inactive) | > 30 µM (inactive) | –
Cn1cc(C2=C(c3cn(C4CCN(Cc5ccccn5)CC4)c4ccccc34)C(=O)NC2=O)c2ccccc21 [ENZASTAURIN] | – | – | – | > 30 µM (inactive) | – | – | – | – | > 30 µM (inactive) | –
O=C(Nc1cc(C(F)(F)F)cc(C(F)(F)F)c1)c1cc(Cl)ccc1O [IMD-0354] | > 30 µM (inactive) | > 30 µM (inactive) | > 30 µM (inactive) | > 30 µM (inactive) | > 30 µM (inactive) | > 30 µM (inactive) | > 30 µM (inactive) | – | – | > 30 µM (inactive)
CN1CCN(CCOc2cc(OC3CCOCC3)c3c(Nc4c(Cl)ccc5c4OCO5)ncnc3c2)CC1 [SARACATINIB] | > 30 µM (inactive) | > 30 µM (inactive) | > 30 µM (inactive) | > 30 µM (inactive) | 0.142 µM (active) | 0.917 µM (active) | > 30 µM (inactive) | > 30 µM (inactive) | > 30 µM (inactive) | –
